The values that follow come from patent publication US11458132B2, “Quinolin-2(1H)-one inhibitors of Late SV40 Factor” (TRUSTEES OF BOSTON UNIVERSITY, priority 2020, dated 2022).

Each structure is given as a SMILES string.

In assay [1] the test system is colorectal cancer tumor. Briefly: Colorectal cancer tumor size and tumor tissue, FIGS. 22-24. The following applies: treated versus control. It counts as in vivo, mouse.
Assay [2] concerns RPE cells. As to the kind of experiment: Microtubule sedimentation assay. Format: cell-based. To be noted: 4 μM FQI1 (15- and 30-minute pellets); 1 μM nocodazole or taxol 30 minutes. The protocol:
(§1) Cell lysate preparation: For microtubule sedimentation assays, cells were treated as indicated in the figure legends, washed with PBS and incubated in 250 μl of microtubule sedimentation assay lysis buffer (100 mM PIPES pH 6.8, 2 M glycerol, 2 mM EGTA, 5 mM MgCl2, 0.1% Triton X-100) supplemented with 1 μM taxol, protease inhibitor cocktail (1:200, Abcam, ab201111) and phosphatase inhibitor cocktail (1:100, Abcam, ab201115) for 20 minutes at 37° C. Two hundred μl of scraped lysate was centrifuged at 21,000×g for 10 minutes at room temperature. Supernatants were saved as soluble fractions. Pellets were resuspended in 200 μl RIPA buffer (50 mM Tris HCl pH 8.0, 150 mM NaCl, 1% IGEPAL CA630, 0.05% deoxycholic acid) supplemented with 1.05% SDS, protease inhibitor cocktail (1:200) and phosphatase inhibitor cocktail (1:100) and incubated at 100° C. for 15 minutes. Pellet suspensions were centrifuged as before and supernatants were saved as pellet fractions.
(§2) Gel electrophoresis and immunoblotting: Microtubule sedimentation fractions and MLC2 analysis samples were separated by electrophoresis through tris-glycine and tricine polyacrylamide gels, respectively, which were transferred to PVDF membranes. Membranes with microtubule sedimentation fractions and MLC2 analysis samples were blocked in 5% milk in TBST and in 5% BSA in TBST, respectively. After overnight incubation with primary antibody at 4° C., the membranes were washed and incubated with secondary antibody for 1 hour at room temperature. Primary antibodies included anti-α-tubulin (1:2,000, Thermo Fisher Scientific, PA529444), anti-acetylated tubulin (1:1,000, Sigma-Aldrich, T7451), anti-phospho MYL9 (1:200, Thermo Fisher Scientific, PA517727), and anti-β-actin (1:5,000, Sigma-Aldrich, A1978). Secondary antibodies included Goat anti-Rabbit HRP (Thermo Fisher Scientific, 31460; 1:10,000 for anti-α-tubulin; 1:5,000 for anti-phospho MYL9), and Goat anti-Mouse HRP (Thermo Fisher Scientific, 62-6520; 1:5,000 for anti-acetylated tubulin; 1:10,000-1:20,000 for anti-β-actin). Membranes were placed into Pierce™ ECL Western Blotting Substrate (Thermo Fisher Scientific, 32106). Autoradiography film was exposed to each membrane for various times to ensure acquisition of non-saturated exposures. Band intensities were quantified from scanned films by densitometry using ImageJ.

The subject of assay [3] is FH-B cells. Briefly: Microtubule sedimentation assay. It counts as cell-based, human. The following applies: 4 μM FQI1 (15- and 30-minute pellets); 1 μM nocodazole or taxol 30 minutes. The protocol:
as §1, §2

Assay [4] deals with RhoA/ROCK pathway in FH-B cells. As to the kind of experiment: Phospho-MLC2 immunoblot (RhoA/ROCK pathway). To be noted: 1 μM taxol 30 minutes, then 4 μM FQI1 10 minutes. It counts as cell-based, human. The protocol: For analysis of phosphorylated MLC2, FH-B cells were treated as indicated in the figure legend, washed with PBS and incubated for 5 minutes in lysis buffer (50 mM Tris-HCl pH 8.0, 50 mM NaF, 5 mM MgCl2, 150 mM NaCl, 1% Triton X-100) supplemented with Tricine Sample Buffer (Bio-rad, 1610739), protease inhibitor cocktail (1:200), phosphatase inhibitor cocktail (1:100), and 1% ([…]. Lysates were incubated at 100° C. for 15 minutes and centrifuged at 21,000×g for 10 minutes prior to SDS-PAGE.
as §2, with “Secondary antibodies included Goat anti-Rabbit HRP (Thermo Fisher Scientific, 31460; 1:10,000 for anti-α-tubulin; 1:5,000 for anti-phospho MYL9), and Goat anti-Mouse HRP (Thermo Fisher Scientific, 62-6520; 1:5,000 for anti-acetylated tubulin; 1:10,000-1:20,000 for anti-β-actin). Membranes were placed into Pierce™ ECL Western Blotting Substrate (Thermo Fisher Scientific, 32106). Autoradiography film was exposed to each membrane for various times to ensure acquisition of non-saturated exposures.” left out
On the technique in general: In western blotting, separated proteins are transferred to a membrane and probed.

With `CC(C)COc1cc(N(C)C)ccc1C1CC(=O)Nc2cc3c(cc21)OCO3` (stereo not shown) [FQI-234, 8-(4-(dimethylamino)-2-isobutoxyphenyl)-7,8-dihydro-[1,3]dioxolo[4,5-g]quinolin-6(5H)-one], the “stained tumor tissue, microscope images” value in assay [1] was “more organized, interstitium and differentiated tumor”.

For `CC(=O)O[C@H]1C(=O)[C@@]2(C)[C@H]([C@H](OC(=O)c3ccccc3)[C@]3(O)C[C@H](OC(=O)[C@H](O)[C@@H](NC(=O)c4ccccc4)c4ccccc4)C(C)=C1C3(C)C)[C@]1(OC(C)=O)CO[C@@H]1C[C@@H]2O` [taxol], the “microtubule stability and α-tubulin acetylation in the microtubule fraction” value in assay [2] was “stabilizes and hyperacetylates microtubules”; in assay [3], “stabilizes and hyperacetylates microtubules”. Besides, the “FQI1-induced increase in MLC2 phosphorylation after taxol preincubation” value in assay [4] is “abrogated”.
